In US20120004228A1, “Bis Aromatic Compounds for Use as LTC4 Synthase Inhibitors” (BIOLIPOX AB, priority 2009, published 2012) one finds IC50 data, which are given here for 35 molecules.

In general, pIC50 refers to −log10 of the IC50, conventionally taken in molar units.

Structures are written as SMILES. pIC50: −log10 of the molar value.

The assay has as its target T1, Recombinant human LTC4 synthase (Homo sapiens, UniProt Q16873).
T1 construct: made in house; host or cells: Pichia pastoris ('Piccia pastoralis' [sic])
T1 sequence (Q16873 1-150): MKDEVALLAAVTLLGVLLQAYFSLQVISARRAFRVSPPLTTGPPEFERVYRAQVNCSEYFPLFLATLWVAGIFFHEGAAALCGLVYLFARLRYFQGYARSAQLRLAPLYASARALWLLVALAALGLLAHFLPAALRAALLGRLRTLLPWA
Nature of the assay: In vitro LTC4 synthase assay (LTA4 to LTC4, HTRF detection). The assay is classed as biochemical.
Regarding `CN(c1ccc(Cl)cc1)c1ccc(C(=O)c2cc(Nc3ccc(Cl)cc3)cc(C(=O)O)c2)cc1` [Example 10:2, 3-{4-[(4-Chlorophenyl)(methyl)amino]benzoyl}-5-(4-chlorophenylamino)-benzoic acid], the pIC50 was 7.19. As to `CN(c1ccc(Cl)cc1)c1ccc(C(=O)c2cc(Sc3ccccc3)cc(C(=O)O)c2)nc1` [19:4, 3-{5-[(4-Chlorophenyl)(methyl)amino]picolinoyl}-5-phenylsulfanylbenzoic acid], the pIC50 was 6.68. As to `COc1cccc(COc2cc(C(=O)O)cc(C(=O)c3ccc(N(C)c4ccc(Cl)cc4)cn3)c2)c1` [11:3, 3-{5-[(4-Chlorophenyl)(methyl)amino]picolinoyl}-5-(3-methoxybenzyloxy)-benzoic acid], the negative-log IC50 (pIC50) is 6.60.

For the molecule `CN(c1ccc(Cl)cc1)c1ccc(C(=O)c2cc(Nc3ccccc3Cl)cc(C(=O)O)c2)nc1` [9:5, 3-{5-[(4-Chlorophenyl)(methyl)amino]picolinoyl}-5-(2-chlorophenylamino)-benzoic acid], the pIC50 is 6.80. To `COCC(=O)N(c1ccccc1)c1cc(C(=O)O)cc(C(=O)c2ccc(N(C)c3ccc(Cl)cc3)cn2)c1` [9:26, 3-{5-[(4-Chlorophenyl)(methyl)amino]picolinoyl}-5-(2-methoxy-N-phenylacet-amido)benzoic acid] belongs 6.33; to `CN(c1ccc(Cl)cc1)c1ccc(C(=O)c2cc(C(=O)O)cc(N(CCCCO)c3ccc4c(c3)OCCO4)c2)nc1` [9:35, 3-{5-[(4-Chlorophenyl)(methyl)amino]picolinoyl}-5-[(3,4-ethylenedioxyphenyl)-(4-hydroxybutyl)amino]benzoic acid], 7.15; to `COc1ccc(NC(=O)c2cc(C(=O)O)cc(C(=O)c3ccc(N(C)c4ccc(Cl)cc4)cn3)c2)cc1` [2:6, 3-{5-[(4-Chlorophenyl)(methyl)amino]picolinoyl}-5-(4-methoxyphenyl-carbamoyl)benzoic acid], 6.13.

As to `CC(=O)N(c1ccccc1)c1cc(C(=O)O)cc(C(=O)c2ccc(N(CC3CC3)c3ccc(Cl)cc3)cn2)c1` [9:19, 3-{5-[(4-Chlorophenyl)(cyclopropylmethyl)amino]picolinoyl}-5-(N-phenylacet-amido)benzoic acid], the negative-log IC50 (pIC50) was 7.40. In the case of `CC(=O)N(c1cc(C(=O)O)cc(C(=O)c2ccc(N(C)c3ccc(Cl)cc3)cn2)c1)C1CCOCC1` [9:44, 3-{5-[(4-Chlorophenyl)(methyl)amino]picolinoyl}-5-[N-(4-tetrahydropyranyl)-acetamido]benzoic acid], the pIC50 was 5.59. Turning to `CN(Cc1cccc(Cl)c1)c1cc(C(=O)O)cc(C(=O)c2ccc(N(C)c3ccc(Cl)cc3)cn2)c1` [9:10, 3-[(3-Chlorobenzyl)(methyl)amino]-5-{5-[(4-chlorophenyl)(methyl)amino]-picolinoyl}benzoic acid], the pIC50 was 7.12. In the case of `CN(c1ccc(Cl)cc1)c1ccc(C(=O)c2cc(C(=O)O)cc(N3CCCCC3)c2)nc1` [9:37, 3-{5-[(4-Chlorophenyl)(methyl)amino]picolinoyl}-5-(1-piperidinyl)benzoic acid], the pIC50 is 6.30. For the molecule `COc1ccc(Nc2cc(C(=O)O)cc(C(=O)c3ccc(N(C)c4ccc(Cl)cc4)cn3)c2)cc1` [9:32, 3-{5-[(4-Chlorophenyl)(methyl)amino]picolinoyl}-5-(4-methoxyphenylamino)-benzoic acid], the negative logarithm of the IC50 (pIC50) is 6.45. The result for `CN(Cc1ccc(Cl)cc1)c1cc(C(=O)O)cc(C(=O)c2ccc(N(C)c3ccc(Cl)cc3)cn2)c1` [9:12, 3-((4-Chlorobenzyl)(methyl)amino)-5-{5-[(4-chlorophenyl)(methyl)amino]-picolinoyl}benzoic acid] reads 6.77; that for `CN(c1ccc(Cl)cc1)c1ccc(C(=NO)c2cc(Oc3ccccc3)cc(C(=O)O)c2)cc1` (mixture of isomers) [Example 17, 3-({4-[(4-Chlorophenyl)(methyl)amino]phenyl}(hydroxyimino)methyl)-5-phenoxy-benzoic acid], 6.08; that for `CN(c1ccc(Cl)cc1)c1ccc(C(=O)c2cc(C(=O)O)cc(N(C)c3cccc(Cl)c3)c2)nc1` [Example 9:1, 3-[(3-Chlorophenyl)(methyl)amino]-5-{5-[(4-chlorophenyl)(methyl)amino]-picolinoyl}benzoic acid], 6.83. Consider `CON=C(c1ccc(N(C)c2ccc(Cl)cc2)cc1)c1cc(Oc2ccccc2)cc(C(=O)O)c1` (mixture of isomers) [Example 18, 3-({4-[(4-Chlorophenyl)(methyl)amino]phenyl}(methoxyimino)methyl)-5-phenoxybenzoic acid], for which the pIC50 was 6.13.

`COc1ccc(N(C)c2cc(C(=O)O)cc(C(=O)c3ccc(N(C)c4ccc(Cl)cc4)cn3)c2)cc1` [9:28, 3-{5-[(4-Chlorophenyl)(methyl)amino]picolinoyl}-5-[(4-methoxyphenyl)(methyl)-amino]benzoic acid]: the negative-log IC50 (pIC50) is 6.86.

`CN(c1ccc(Cl)cc1)c1ccc(C(=O)c2cc(Nc3ccc4c(c3)OCO4)cc(C(=O)O)c2)nc1` [9:29, 3-{5-[(4-Chlorophenyl)(methyl)amino]picolinoyl}-5-(3,4-methylenedioxy-phenylamino)benzoic acid]: the negative logarithm of the IC50 (pIC50) is 6.38.

In the case of `CN(c1ccc(Cl)cc1)c1ccc(C(=O)c2cc(NCc3ccc(Cl)cc3)cc(C(=O)O)c2)cc1` [10:20, 3-(4-Chlorobenzylamino)-5-{4-[(4-chlorophenyl)(methyl)amino]benzoyl}-benzoic acid], the negative logarithm of the IC50 (pIC50) is 6.93.

Regarding `CN(c1ccc(Cl)cc1)c1cc(C(=O)O)cc(C(=O)c2ccc(N(CC3CC3)c3ccc(Cl)cc3)cn2)c1` [Example 9:16, 3-{5-[(4-Chlorophenyl)(cyclopropylmethyl)amino]picolinoyl}-5-[(4-chlorophenyl)-(methyl)amino]benzoic acid], the pIC50 is 7.77. To `COCCN(c1ccccc1)c1cc(C(=O)O)cc(C(=O)c2ccc(N(C)c3ccc(Cl)cc3)cc2)c1` [10:26, 3-{4-[(4-Chlorophenyl)(methyl)amino]benzoyl}-5-[(2-methoxyethyl)(phenyl)-amino]benzoic acid] belongs 7.13; to `CN(c1ccc(Cl)cc1)c1ccc(C(=O)c2cc(C(=O)O)cc(N(C)c3ccc(Cl)cc3)c2)cc1` [Example 10:1, 3-[(4-Chlorophenyl)(methyl)amino]-5-{4-[(4-chlorophenyl)(methyl)amino]benzoyl}-benzoic acid], 7.39; to `COc1cccc(C(=O)Nc2cc(C(=O)O)cc(C(=O)c3ccc(N(C)c4ccc(Cl)cc4)cn3)c2)c1` [2:10, 3-{5-[(4-Chlorophenyl)(methyl)amino]picolinoyl}-5-(3-methoxybenzamido)-benzoic acid], 6.39. Turning to `CN(c1ccc(Cl)cc1)c1ccc(C(=O)c2cc(Nc3ccc(C(F)(F)F)cc3)cc(C(=O)O)c2)cc1` [10:17, 3-{4-[(4-Chlorophenyl)(methyl)amino]benzoyl}-5-(4-trifluoromethylphenyl-amino)benzoic acid], the pIC50 is 6.80. The result for `CN(c1ccc(Cl)cc1)c1ccc(C(=O)c2cc(Oc3cccc(F)c3)cc(C(=O)O)c2)cc1` [8:13, 3-{4-[(4-Chlorophenyl)(methyl)amino]benzoyl}-5-(3-fluorophenoxy)benzoic acid] reads 7.23.

Take `CN(c1ccc(Cl)cc1)c1ccc(C(=O)c2cc(C(=O)O)cc(N(CCCCO)c3ccccn3)c2)nc1` [9:40, 3-{5-[(4-Chlorophenyl)(methyl)amino]picolinoyl}-5-[(4-hydroxybutyl)(2-pyridyl)-amino]benzoic acid]: the negative-log IC50 (pIC50) was 6.44. On to `CN(c1ccc(Cl)cc1)c1ccc(C(=O)c2cc(NC(=O)c3cccc(Cl)c3)cc(C(=O)O)c2)nc1` [2:9, 3-(3-Chlorobenzamido)-5-{5-[(4-chlorophenyl)(methyl)amino]picolinoyl}benzoic acid], for which the negative-log IC50 (pIC50) was 6.56. To `COc1ccccc1Nc1cc(C(=O)O)cc(C(=O)c2ccc(N(C)c3ccc(Cl)cc3)cc2)c1` [10:15, 3-{4-[(4-Chlorophenyl)(methyl)amino]benzoyl}-5-(2-methoxyphenylamino)-benzoic acid] belongs 6.44; to `COc1ccccc1Oc1cc(C(=O)O)cc(C(=O)c2ccc(N(C)c3ccc(Cl)cc3)cn2)c1` [8:4, 3-{5-[(4-Chlorophenyl)(methyl)amino]picolinoyl}-5-(2-methoxyphenoxy)benzoic acid], 6.28.

In the case of `CN(c1ccc(Cl)cc1)c1ccc(C(=O)c2cc(C(=O)O)cc(N(C)c3ccc(Cl)cc3Cl)c2)cc1` [10:13, 3-{4-[(4-Chlorophenyl)(methyl)amino]benzoyl}-5-[(2,4-dichlorophenyl)-(methyl)amino]benzoic acid], the negative logarithm of the IC50 (pIC50) is 7.40. Turning to `CN(c1ccc(Cl)cc1)c1ccc(C(=O)c2cc(Oc3ccccc3Cl)cc(C(=O)O)c2)cc1` [8:19, 3-(2-Chlorophenoxy)-5-{4-[(4-chlorophenyl)(methyl)amino]benzoyl}benzoic acid], the pIC50 is 7.10.

For `CN(Cc1ccc2c(c1)OCO2)c1cc(C(=O)O)cc(C(=O)c2ccc(N(C)c3ccc(Cl)cc3)cn2)c1` [9:14, 3-{5-[(4-Chlorophenyl)(methyl)amino]picolinoyl}-5-[(3,4-methylenedioxy-benzyl)(methyl)amino]benzoic acid], the pIC50 was 6.99. As for `CN(c1ccc(Cl)cc1)c1ccc(C(=O)c2cc(Nc3ccccc3OC(F)(F)F)cc(C(=O)O)c2)cc1` [10:4, 3-{4-[(4-Chlorophenyl)(methyl)amino]benzoyl}-5-(2-(trifluoromethoxy)-phenylamino)benzoic acid], the pIC50 is 6.69. As to `COc1ccccc1N(C(C)=O)c1cc(C(=O)O)cc(C(=O)c2ccc(N(C)c3ccc(Cl)cc3)cn2)c1` [9:24, 3-{5-[(4-Chlorophenyl)(methyl)amino]picolinoyl}-5-[N-(2-methoxyphenyl)-acetamido]benzoic acid], the negative logarithm of the IC50 (pIC50) is 6.03. On to `CN(c1ccc(Cl)cc1)c1ccc(C(=O)c2cc(Cc3ccccc3)cc(C(=O)O)c2)nc1` [Example 13, 3-Benzyl-5-{5-[(4-chlorophenyl)(methyl)amino]picolinoyl}benzoic acid], for which the negative-log IC50 (pIC50) is 6.53.
